Laboratory results reported in patent publication US10561611B2, “Combination liposomal pharmaceutical formulations” (Cureport, Inc., priority 2015, dated 2020).

Assay: in vivo
Settings: male, CD-1, mouse, iv
Description: Male CD-1 mice ranging from 20-25 g body weight were split up into groups of three. Each mouse was administered with a single dose of CPT319A or CPT307A at 5 mg/kg DXR by intravenous (IV) injection through the tail vein. A non-liposomal combination of DXR was used as the control. Blood samples were collected at 0.167, 1, 3, 8, 24, and 48 h after the injection. DXR plasma concentration was determined by liquid chromatography-tandem mass spectrometry (LC-MS-MS).

AUC: 688 ng·h/mL
AUC (5 mg/kg): 688 ng·h/mL
Compound: COc1cccc2c1C(=O)c1c(O)c3c(c(O)c1C2=O)C[C@@](O)(C(=O)CO)C[C@@H]3O[C@H]1C[C@H](N)[C@H](O)[C@H](C)O1 [Naked DXR, doxorubicin]
